The results in this text go back to PubChem BioAssay (NCI).

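In this assay, cells in 96-well plates receive the compound at five concentrations for 48 hours. Endpoints are linearly interpolated between the surrounding concentrations. TGI denotes the concentration required for complete inhibition of growth.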

Assay in all cases: NCI-60 cell line screen, 48 h
Assay [1] has as its system ACHN renal.
Assay [2] has as its system HCT-15 colon.
In assay [3] the test system is HOP-92 NSCLC.
Assay [4] concerns HT29 colon.
The test system of assay [5] is NCI-H460 lung.
Assay [6] relates to SN12C renal.
For assay [7], the system named is UO-31 renal.
The subject of assay [8] is NCI-H226 lung.

Turning to `C=C1C(=O)C23[C@H](O)C1CC[C@H]2[C@]12COC3(O)[C@@H](O)[C@@H]1C(C)(C)CC[C@@H]2O`, the TGI in assay [1] amounted to 30.2 µM; in assay [2], 15.9 µM; in assay [3], 10.1 µM; in assay [4], 36.6 µM; in assay [5], 30.7 µM; in assay [6] it was 35.3 µM. The same compound displayed a TGI in assay [7] of 29 µM.
On to `CN(C)c1ccc(/C=C(\NC(=O)c2ccccc2)c2nc3ccc4c(c3[nH]2)C(=O)c2ccccc2C4=O)cc1`, for which the TGI in assay [2] was more than 100 µM; in assay [3] it was 97.3 µM; in assay [4] it was more than 100 µM; in assay [5], more than 100 µM; in assay [6], more than 100 µM; in assay [7], 7.37 µM.
Consider `COc1cc2c(c3c1c(=O)c1ccccc1n3C)C=CC(C)(C)O2`, for which the TGI in assay [1], in assay [2], in assay [3], in assay [4], in assay [8] and in assay [5] was more than 100 µM each time. The TGI in assay [6] and in assay [7] was more than 100 µM in each case.
Turning to `CCOc1cccc2c1N[S@@](=O)S2`, the TGI in assay [1], in assay [2], in assay [3], in assay [4], in assay [8] and in assay [6] was more than 100 µM throughout. Moreover, the TGI in assay [7] is more than 100 µM.
Turning to `CCOc1ccc(N=C2NC(=O)C(CC(=O)Nc3ccccc3[N+](=O)[O-])S2)cc1` (centres undefined), the TGI in assay [1], in assay [2], in assay [3], in assay [4], in assay [8] and in assay [5] was more than 100 µM each time. Further, the TGI in assay [6] and in assay [7] was more than 100 µM in each case.
On to `CC(=O)c1ccc(NC(=O)C(=O)C(C(=O)/C=C/c2ccccc2)C2OC(=O)c3ccccc32)cc1` (centres undefined), for which the TGI in assay [1], in assay [2], in assay [3], in assay [4], in assay [8] and in assay [5] was more than 100 µM each time. Also, the TGI in assay [6] and in assay [7] was more than 100 µM each time.
Turning to `COc1ccc(/C=C2\CCC(CCN(C)C)(C3=CCCC3)C2=O)cc1` (centres undefined), the TGI in assay [1] stood at 31.2 µM; in assay [2], 51.4 µM; in assay [3], 54.1 µM; in assay [4] it was 32.8 µM; in assay [8], 38.5 µM; in assay [5], 40.5 µM. Further, the TGI in assay [6] turned out to be 40.5 µM; in assay [7], 28.2 µM.
Turning to `CCOC(=O)C1Cc2ccc3c4c(ccc(c24)C1)CC(C(=O)OCC)C3`, the TGI in assay [1], in assay [2], in assay [3], in assay [4], in assay [8] and in assay [6] was more than 100 µM throughout. The TGI in assay [7] was more than 100 µM.
For `C[N+](C)(C)CC1CCCCC1=O` (centres undefined), the TGI in assay [1] is 34.4 µM; in assay [2], 29 µM; in assay [4] it was 38.3 µM; in assay [8] it was more than 100 µM; in assay [5] it was more than 100 µM; in assay [6], more than 100 µM. This compound registered a TGI in assay [7] of more than 100 µM.
Regarding `COc1ccc(O)c(C(=O)CCC(=O)O)c1`, the TGI in assay [1], in assay [2], in assay [3], in assay [4], in assay [8] and in assay [5] was more than 100 µM each time. In addition, the TGI in assay [6] and in assay [7] was more than 100 µM throughout.
Turning to `CN/N=C(/c1nc2ccc([N+](=O)[O-])cc2[nH]c1=O)C(O)c1ccc(C(O)/C(=N\NC)c2nc3ccc([N+](=O)[O-])cc3[nH]c2=O)cc1` (centres undefined), the TGI in assay [1], in assay [2], in assay [3], in assay [4], in assay [8] and in assay [5] was more than 100 µM each time. Besides, the TGI in assay [7] was more than 100 µM.
With `C#CCN(N=O)C(=O)ON1C(=O)CCC1=O`, the TGI in assay [1], in assay [2], in assay [3], in assay [4], in assay [5] and in assay [6] was more than 100 µM throughout. Moreover, the TGI in assay [7] was more than 100 µM.
Regarding `OC1=CN=COc2ccccc21`, the TGI in assay [1], in assay [2], in assay [3], in assay [4], in assay [5] and in assay [6] was more than 100 µM each time. This compound also yielded a TGI in assay [7] of more than 100 µM.
For `COc1cccc(-c2cc(=O)c3cc4c(cc3[nH]2)OCO4)c1`, the TGI in assay [1] was more than 48.2 µM; in assay [2], 8.25 µM; in assay [3], more than 100 µM; in assay [4] it was 2.37 µM; in assay [8], 0.593 µM; in assay [5], 0.898 µM. In addition, the TGI in assay [6] and in assay [7] was more than 100 µM each time.
As to `CC1=Nc2ccccc2SC(c2c(Cl)cccc2Cl)C1` (centres undefined), the TGI in assay [1] turned out to be 3.19 µM; in assay [2] it was 2.57 µM; in assay [3] it was 3.62 µM; in assay [4], 1.57 µM; in assay [8], 3.05 µM; in assay [5] it was 3.26 µM. Further, the values for the TGI in assay [6] and in assay [7] were 2.7 µM and 3.09 µM, respectively.
As for `COc1ccc(/C=C(\NC(=O)c2ccccc2)c2nc3ccccc3[nH]2)cc1OC`, the TGI in assay [1], in assay [2], in assay [3], in assay [4], in assay [8] and in assay [5] was more than 100 µM in each case. The TGI in assay [6] and in assay [7] was more than 100 µM each time.
